Data published in patent publication US10155021B2, “Antimicrobial 4-oxoquinolizines” (Emergent Product Development Gaithersburg Inc., priority 2011, dated 2018).
Converted amounts (≈) assume the structure as drawn. Read-outs that look alike come from different tables or passages of the source.

How the values were obtained:
[1] = test system: K. pneumoniae BAA-2146 (NDM-1, FQ-R); test: MIC on K. pneumoniae (Example 5); format: cell-based; conditions: Klebsiella pneumoniae, BAA2146, read-out: MIC K. pneumoniae BAA-2146 (NDM-1, FQ-R)
Experimental: MIC Values for all compounds were measured against a selection of bacterial strains. The MICs of 4-oxoquinolizines against a selection of Gram-negative and Gram-positive bacterial strains are shown in Table 13 in comparison with known antibiotics.

A. baumannii J2 [2] = test: MIC without and with sub-inhibitory polymyxin B (Example 4); format: cell-based, Acinetobacter baumannii
E. coli CTX-M-15 = test: MIC, panel of quinolone-resistant strains (CLSI); format: cell-based; conditions: Escherichia coli, CTXM15; CIP R, ESBL
A. baumannii A472 [3] = test: MIC determination for Acinetobacter strains (Example 3); format: cell-based; conditions: LEV R, CIP R, MRP I, IMP I, AMK R, TET R
B. thailandensis = test: microbe, parasite or virus in culture; format: cell-based, Burkholderia thailandensis; conditions: for MIC90: Burkholderia thailandensis, read-out: MIC90 B. thailandensis
A. baumannii A390 [4] = test: MIC determination for Acinetobacter strains (Example 3); format: cell-based; conditions: LEV R, CIP R, MRP R, IPM I, AMK R, TET I
F. tularensis = test: microbe, parasite or virus in culture; format: cell-based; conditions: Francisella tularensis, read-out: MIC F. tularensis
A. baumannii ATCC 19606 = test: Preliminary MBC without and with sub-inhibitory polymyxin B (Example 4); format: cell-based, Acinetobacter baumannii; conditions: Acinetobacter baumannii, ATCC19606, read-out: MBC without PB
S. pneumoniae 1027 = test: MIC, panel of quinolone-resistant strains (CLSI); format: cell-based; conditions: Streptococcus pneumoniae, LEV R
A. baumannii J2 [5] = test: MIC determination for Acinetobacter strains (Example 3); format: cell-based; conditions: LEV R, CIP R
[6] = test system: resistant strains of A. baumannii and one strain of Acinetobacter sp.; test: MIC without and with sub-inhibitory polymyxin B, whole panel / MIC ranges (Example 4; also strains not listed separately); format: cell-based; conditions: Acinetobacter baumannii
[7] = test system: Acinetobacter sp. (H064200250); test: Preliminary MBC without and with sub-inhibitory polymyxin B (Example 4); format: cell-based; conditions: Acinetobacter, without polymyxin B, preliminary MBC, read-out: MBC without PB
Experimental: The plates were incubated for 18-20 hours at 37° C. The MBC was read as the lowest concentration at which colony growth was ca. 90% less than the positive control (i.e. usually where single colonies or no colonies were observed).

B. pseudomallei = test: microbe, parasite or virus in culture; format: cell-based; conditions: Burkholderia pseudomallei, read-out: MIC B. pseudomallei
E. coli 25922 = test: MIC, standard panel of Gram-positive and Gram-negative bacteria (CLSI); format: cell-based, Escherichia coli; conditions: Escherichia coli, 25922; CAMHB; read-out: MIC E. coli 25922
B. anthracis = test: microbe, parasite or virus in culture; format: cell-based; conditions: Bacillus anthracis, read-out: MIC B. anthracis
A. baumannii A473 [8] = test: MIC without and with sub-inhibitory polymyxin B (Example 4); format: cell-based, Acinetobacter baumannii; conditions: Acinetobacter baumannii, A473, A. baumannii A473, without polymyxin B, read-out: MIC without PB
A. baumannii A473 [9] = test: MIC determination for Acinetobacter strains (Example 3); format: cell-based; conditions: LEV R, CIP R, MRP R, IMP R, AMK R, TET R
E. faecium 19434 = test: MIC, standard panel of Gram-positive and Gram-negative bacteria (CLSI); format: cell-based, Enterococcus faecium; conditions: Enterococcus faecium, 19434; CAMHB; read-out: MIC E. faecium 19434
E. coli 2906 = test: MIC, panel of quinolone-resistant strains (CLSI); format: cell-based; conditions: Escherichia coli, CIP R
A. baumannii A329 = test: MIC without and with sub-inhibitory polymyxin B (Example 4); format: cell-based, Acinetobacter baumannii; conditions: Acinetobacter baumannii, A329, A. baumannii A329; without polymyxin B; 2nd experiment; visual reading; read-out: MIC without PB
A. Baumanii OXA-51 = test: MIC, panel of quinolone-resistant strains (CLSI); format: cell-based; conditions: Acinetobacter baumannii; CIP R, ESBL
E. coli IMP = test: microbe, parasite or virus in culture; conditions: Escherichia coli, read-out: MIC E. coli IMP
A. baumannii A401 = test: MIC without and with sub-inhibitory polymyxin B (Example 4); format: cell-based, Acinetobacter baumannii; conditions: Acinetobacter baumannii, A401, A baumannii A 401; without polymyxin B; 2nd experiment; visual reading; read-out: MIC without PB
A. baumannii A472 [10] = test: as above; format: cell-based, Acinetobacter baumannii; conditions: Acinetobacter baumannii, A472, A. baumannii A472; without polymyxin B; 1st experiment; read-out: MIC without PB
S. aureus 101 = test: MIC, standard panel of Gram-positive and Gram-negative bacteria (CLSI); format: cell-based, Staphylococcus aureus; conditions: Staphylococcus aureus, 101; CAMHB; read-out: MIC S. aureus 101
B. abortus = test: microbe, parasite or virus in culture; format: cell-based; conditions: Brucella abortus, read-out: MIC B. abortus
P. aeruginosa 1388-3-02 = test: MIC, panel of quinolone-resistant strains (CLSI); format: cell-based; conditions: Pseudomonas aeruginosa, 1388302; CIP R, POL R
Pseudomonas ssp PER-1 = test: MIC, panel of quinolone-resistant strains (CLSI); format: cell-based, Pseudomonas spp; conditions: PER1, CIP R, ESBL
Klebsiella ssp KPC-3 = test: MIC, panel of quinolone-resistant strains (CLSI); format: cell-based, Klebsiella spp; conditions: KPC3, CIP R, ESBL
P. aeruginosa 143-3-03 = test: MIC, panel of quinolone-resistant strains (CLSI); format: cell-based; conditions: Pseudomonas aeruginosa, 143303; CIP I, POL R
A. baumannii A390 [11] = test: MIC without and with sub-inhibitory polymyxin B (Example 4); format: cell-based, Acinetobacter baumannii; conditions: Acinetobacter baumannii, A390, A. baumannii A390, without polymyxin B, read-out: MIC without PB
[12] = test system: Acinetobacter spp. H064200250; test: MIC determination for Acinetobacter strains (Example 3); format: cell-based, Acinetobacter sp.; conditions: LEV R, CIP R, MRP R, IMP I
A. baumannii A489 = test: MIC without and with sub-inhibitory polymyxin B (Example 4); format: cell-based, Acinetobacter baumannii; conditions: Acinetobacter baumannii, A489, A. baumannii A489; without polymyxin B; 2nd experiment; visual reading; read-out: MIC without PB
[13] = test system: Acinetobacter sp. (H064200250); test: as above; format: cell-based; conditions: Acinetobacter, without polymyxin B, read-out: MIC without PB
P. aeruginosa 27853 = test: MIC, standard panel of Gram-positive and Gram-negative bacteria (CLSI); format: cell-based, Pseudomonas aeruginosa; conditions: Pseudomonas aeruginosa, 27853; CAMHB; read-out: MIC P. aeruginosa 27853
A. baumannii J2 [14] = test: Preliminary MBC without and with sub-inhibitory polymyxin B (Example 4); format: cell-based, Acinetobacter baumannii; conditions: A. baumannii J2; +[…] polymyxin B; 2nd experiment; preliminary MBC
[15] = A. baumannii A14, without polymyxin B, 1st experiment, read-out: MIC without PB
[16] = read-out: MIC range without PB 01-10-2008 n = 8, without polymyxin B, 1st experiment, 8 strains
[17] = Acinetobacter spp. H064200250 (OXA51), 2nd experiment
[18] = Acinetobacter spp. H064200250, 1st experiment
[19] = Acinetobacter spp. H064200250 (OXA51), 2nd experiment, visual reading

## Cc1c(-c2cc(F)c(N)cc2F)ccn2c(=O)c(C(=O)[O-])cc(C3CC3)c12.[K+] [Compound 2 K salt, Potassium 8-(4-amino-2,5-difluoro-phenyl)-1-cyclopropyl-9-methyl-4-oxo-4H-quinolizine-3-carboxylate]
[1]
  MIC: > 8 µg/mL

## Cc1c(-c2ccc3[nH]ncc3c2)ccn2c(=O)c(C(=O)[O-])cc(C3CC3)c12.[K+] [Compound 35 K salt, potassium 8-(1H-indazol-5-yl)-1-cyclopropyl-9-methyl-4-oxo-4H-quinolizine-3-carboxylate]
[1]
  MIC: > 8 µg/mL

## Cc1c(-c2ccc(CN)cc2)ccn2c(=O)c(C(=O)O)cc(C3CC3)c12 [Compound 5, 8-(4-aminomethyl-phenyl)-1-cyclopropyl-9-methyl-4-oxo-quinolizine-3-carboxylic acid]
A. baumannii J2 [2]; Acinetobacter baumannii, J2, A. baumannii J2, without polymyxin B, 1st experiment, read-out: MIC without PB
  MIC: 8 µg/mL (≈ 23 µM)
E. coli CTX-M-15
  MIC: 16 µg/mL (≈ 45.9 µM)
A. baumannii A472 [3]
  MIC: 8 µg/mL (≈ 23 µM)
B. thailandensis
  MIC90: 0.39 µg/mL (≈ 1.12 µM)
A. baumannii A390 [4]
  MIC: 8 µg/mL (≈ 23 µM)
F. tularensis
  MIC: 0.125 µg/mL (≈ 0.359 µM)
A. baumannii ATCC 19606
  MBC: 0.125 µg/mL (≈ 0.359 µM)
S. pneumoniae 1027
  MIC: 2 µg/mL (≈ 5.74 µM)
A. baumannii J2 [5]
  MIC: 8 µg/mL (≈ 23 µM)
[6]; [15]
  MIC: 32 µg/mL (≈ 91.8 µM)
[6]; NCTC13301, A. baumannii NCTC 13301, without polymyxin B, 2nd experiment, visual reading, read-out: MIC without PB
  MIC: 8 µg/mL (≈ 23 µM)
[6]; [16]
  MIC: 2 to 32 µg/mL (≈ 5.74 to 91.8 µM)
[6]; without polymyxin B, 2nd experiment, 11 strains, read-out: MIC range without PB 14-10-2008 n = 11
  MIC: 4 to 16 µg/mL (≈ 11.5 to 45.9 µM)
[7]; [17]
  MBC: 16 µg/mL (≈ 45.9 µM)
[7]; [18]
  MBC: 8 µg/mL (≈ 23 µM)
B. pseudomallei
  MIC: 2 µg/mL (≈ 5.74 µM)
E. coli 25922
  MIC: < 0.03 µg/mL
B. anthracis
  MIC: 0.125 µg/mL (≈ 0.359 µM)
A. baumannii A473 [8]; 1st experiment
  MIC: 8 µg/mL (≈ 23 µM)
A. baumannii A473 [8]; 2nd experiment, visual reading
  MIC: 8 µg/mL (≈ 23 µM)
A. baumannii A473 [9]
  MIC: 8 µg/mL (≈ 23 µM)
E. faecium 19434
  MIC: 2 µg/mL (≈ 5.74 µM)
E. coli 2906
  MIC: 16 µg/mL (≈ 45.9 µM)
A. baumannii A329
  MIC: 8 µg/mL (≈ 23 µM)
A. Baumanii OXA-51
  MIC: 8 µg/mL (≈ 23 µM)
E. coli IMP
  MIC: < 0.008 µg/mL
A. baumannii A401
  MIC: 8 µg/mL (≈ 23 µM)
A. baumannii A472 [10]
  MIC: 8 µg/mL (≈ 23 µM)
S. aureus 101
  MIC: 4 µg/mL (≈ 11.5 µM)
B. abortus
  MIC: 1 µg/mL (≈ 2.87 µM)
P. aeruginosa 1388-3-02
  MIC: 16 µg/mL (≈ 45.9 µM)
Pseudomonas ssp PER-1
  MIC: 8 µg/mL (≈ 23 µM)
Klebsiella ssp KPC-3
  MIC: 8 µg/mL (≈ 23 µM)
P. aeruginosa 143-3-03
  MIC: 4 µg/mL (≈ 11.5 µM)
A. baumannii A390 [11]; 1st experiment
  MIC: 8 µg/mL (≈ 23 µM)
A. baumannii A390 [11]; 2nd experiment, visual reading
  MIC: 8 µg/mL (≈ 23 µM)
[12]
  MIC: 16 µg/mL (≈ 45.9 µM)
A. baumannii A489
  MIC: 8 µg/mL (≈ 23 µM)
[13]; [19]
  MIC: 16 µg/mL (≈ 45.9 µM)
[13]; [18]
  MIC: 16 µg/mL (≈ 45.9 µM)

## Cc1c(-c2ccc(N)nc2)ccn2c(=O)c(C(=O)[O-])cc(C3CC3)c12.[K+] [Compound 33 K salt, potassium 8-(6-amino-pyridin-3-yl)-1-cyclopropyl-9-methyl-4-oxo-4H-quinolizine-3-carboxylate]
[1]
  MIC: > 8 µg/mL

## Cc1c(-c2ccc(CN)cc2)c(F)cn2c(=O)c(C(=O)O)cc(C3CC3)c12 [Compound 6, 8-(4-aminomethyl-phenyl)-1-cyclopropyl-7-fluoro-9-methyl-4-oxo-quinolizine-3-carboxylic acid]
A. baumannii J2 [2]; A. baumannii J2, +[…] polymyxin B, 2nd experiment, visual reading
  MIC +[…] PB: 0.25 µg/mL (≈ 0.682 µM)
E. coli CTX-M-15
  MIC: 16 µg/mL (≈ 43.7 µM)
B. thailandensis
  MIC90: 0.39 µg/mL (≈ 1.06 µM)
B. thailandensis; pH 7 versus pH 5
  Dilutions improvement shift on B. thailandensis MIC90 (between pH 7 and pH 5): No
F. tularensis
  MIC: 0.125 µg/mL (≈ 0.341 µM)
S. pneumoniae 1027
  MIC: 2 µg/mL (≈ 5.46 µM)
[6]; [15]
  MIC: 32 µg/mL (≈ 87.3 µM)
[6]; NCTC13301, A. baumannii NCTC 13301, without polymyxin B, 1st experiment, read-out: MIC without PB
  MIC: 32 µg/mL (≈ 87.3 µM)
[6]; [16]
  MIC: 4 to 32 µg/mL (≈ 10.9 to 87.3 µM)
[7]; [17]
  MBC: > 32 µg/mL
[7]; [18]
  MBC: 8 µg/mL (≈ 21.8 µM)
B. pseudomallei
  MIC: 2 µg/mL (≈ 5.46 µM)
E. coli 25922
  MIC: < 0.03 µg/mL
B. anthracis
  MIC: 0.125 µg/mL (≈ 0.341 µM)
E. faecium 19434
  MIC: 4 µg/mL (≈ 10.9 µM)
E. coli 2906
  MIC: 16 µg/mL (≈ 43.7 µM)
P. aeruginosa 27853
  MIC: 2 µg/mL (≈ 5.46 µM)
S. aureus 101
  MIC: 2 µg/mL (≈ 5.46 µM)
B. abortus
  MIC: 0.5 µg/mL (≈ 1.36 µM)
P. aeruginosa 1388-3-02
  MIC: 32 µg/mL (≈ 87.3 µM)
Pseudomonas ssp PER-1
  MIC: 16 µg/mL (≈ 43.7 µM)
Klebsiella ssp KPC-3
  MIC: 16 µg/mL (≈ 43.7 µM)
P. aeruginosa 143-3-03
  MIC: 8 µg/mL (≈ 21.8 µM)
[12]
  MIC: 8 µg/mL (≈ 21.8 µM)
A. baumannii J2 [14]
  MBC +[…] PB: 0.25 µg/mL (≈ 0.682 µM)
[13]; [19]
  MIC: 16 µg/mL (≈ 43.7 µM)
[13]; [18]
  MIC: 8 µg/mL (≈ 21.8 µM)
